Data on 91 compounds can be found in ChEMBL document CHEMBL5604061, “ASAP - WNV NS2B-NS3 protease fluorescence dose response” (2024).

As a reminder, the IC50 is the concentration at which inhibition is half-maximal.

SMILES strings stand for the structures. Several values for one entry are separate records, joined by “and”; a condition that tells them apart may be missing. Equal values may be shown once.

In this experiment the target is T1, NS3 (West Nile virus, UniProt K4FQI5).
T1 sequence (K4FQI5 whole entry): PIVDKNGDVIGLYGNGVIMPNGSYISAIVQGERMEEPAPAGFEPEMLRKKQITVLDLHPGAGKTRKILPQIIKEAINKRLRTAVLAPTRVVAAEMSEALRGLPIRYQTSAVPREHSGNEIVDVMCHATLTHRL
The experiment is described as follows: Functional biochemical assay to identify treatments for viral infectious disease that targets West Nile NS2B-NS3 protease. Utilizing a direct enzyme activity measurement method, reading the fluorescence intensity is used to characterize the relative potency of inhibitors as IC50. Further details: species or system NY-99.
`O=C(NC[C@H]1CCCO1)[C@H](Nc1ccc2c(c1)CNC2)c1cc(Cl)cc2[nH]ncc12`: the IC50 amounted to 1.16 µM.
Then `Cc1cc(C(=O)Nc2ccc3c(c2)CNC3)c2cn[nH]c2c1`, with 9.64 µM; and `O=C(Nc1ccc2c(c1)CNC2)c1cc(Cl)cc(-n2cccc2)c1`, with 12.9 µM; and `N#Cc1cc(Cl)cc(C(=O)Nc2ccc3c(c2)CNC3)c1`, with 54.9 µM.
As to `CC(C)NC(=O)[C@H](Nc1ccc2c(c1)CNC2)c1cc(Cl)cc2[nH]ncc12`, the IC50 was 0.386 µM and 0.292 µM and 0.336 µM.
`Cc1ccc(S(=O)(=O)CNC(=O)[C@H](Nc2ccc3c(c2)CNC3)c2cc(Cl)cc3[nH]ncc23)cc1` returned an IC50 of 11.7 µM.
Then `O=C(Nc1ccc2c(c1)CNC2)c1cc(Cl)cc(C2CC2)c1`, with 25.5 µM; and `Nc1cc(Cl)cc(C(=O)Nc2ccc3c(c2)CNC3)c1N`, with 33.3 µM.
Turning to `N#CCCNC(=O)[C@H](Nc1ccc2c(c1)CNC2)c1cc(Cl)cc(C2CC2)c1`, the concentration for half-maximal inhibition (IC50) turned out to be 0.43 µM.
In the case of `O=C(Nc1ccc2c(c1)CNC2)c1cc(Br)cc2[nH]c([C@H]3CCOC3)nc12`, the IC50 came out at 92.3 µM.
`O=C(Nc1ccc2c(c1)CNC2)c1cc(Cl)ccc1SC1CCCC1` showed a half-inhibitory concentration (IC50) of over 99.5 µM.
For `O=C(Nc1ccc2c(c1)CNC2)c1cc(Br)cc2[nH]c(-c3ccccc3)nc12`, the IC50 is 11.4 µM.
Turning to `O=C(Nc1ccc2c(c1)CNC2)c1cc(F)cc2[nH]nnc12`, the IC50 amounted to 5.06 µM.
Then `N#Cc1cc(Cl)cc([C@H](C#N)Nc2ccc3c(c2)CNC3)c1`, with 98.5 µM; and `O=C(Nc1ccc2c(c1)CNC2)c1cc(Br)cc2[nH]c(C3CCOCC3)nc12`, with over 99.5 µM; and `O=C(Nc1ccc2c(c1)CNC2)c1cccc2[nH]ncc12`, with 4.33 µM.
Then `CCc1cc(Cl)cc(C(=O)Nc2ccc3c(c2)CNC3)c1`, with over 99.5 µM; and `Cc1ccc2cc(Cl)cc(C(=O)Nc3ccc4c(c3)CNC4)c2n1`, with over 99.5 µM; and `O=C(Nc1cnc2c(c1)CNCC2)c1cc(Cl)cc2[nH]ncc12`, with 26.5 µM.
For `O=C(Nc1ccc2c(c1)CNCCO2)c1cc(Cl)cc2[nH]ncc12` the value was 19.6 µM.
The compound `O=C(Nc1ccc2c(c1)CNC2)c1cc(Br)cc2[nH]ncc12` yielded a 50% inhibitory concentration (IC50) of 12.9 µM.
As for `O=C(NC[C@H]1CCCO1)[C@H](Nc1ccc2c(c1)CNC2)c1cc(Cl)cc(C2CC2)c1`, the IC50 came out at 0.498 µM.
Then `COC(=O)CNC(=O)[C@H](Nc1ccc2c(c1)CNC2)c1cc(Cl)cc(C2CC2)c1`, with 0.897 µM; and `CC(=O)Nc1cc(Br)cc(C(=O)Nc2ccc3c(c2)CNC3)c1`, with 31.5 µM; and `CCc1nc2c(C(=O)Nc3ccc4c(c3)CNC4)cc(Br)cc2[nH]1`, with 55.9 µM.
For `O=C(NCC1CCOCC1)[C@H](Nc1ccc2c(c1)CNC2)c1cc(Cl)cc2[nH]ncc12` the value was 2.28 µM; for `O=C(NCc1ccc(F)cc1)[C@H](Nc1ccc2c(c1)CNC2)c1cc(Cl)cc2[nH]ncc12`, 1.08 µM; for `CC(C)c1nc2c(C(=O)Nc3ccc4c(c3)CNC4)cc(Br)cc2[nH]1`, over 99.5 µM.
For `O=C(Nc1cc2c(cc1Br)CNC2)c1cc(Cl)cc2[nH]ncc12` the value was 2.73 µM.
Regarding `O=C(Nc1ccc2c(c1)CNC2)c1cccc2[nH]c(C(F)(F)F)cc12`, the IC50 stood at 2.51 µM.
For `O=C(Nc1ccc2c(c1)CNC2)c1cc(Cl)cc2[nH]c(-c3ccnn3C3CC3)nc12`, the IC50 worked out at 18.6 µM.
Then `CNC(=O)[C@H](Nc1cc(Cl)cc2[nH]ncc12)c1ccc2c(c1)CNC2`, with 88.4 µM; and `Nc1noc2cccc(C(=O)Nc3ccc4c(c3)CNC4)c12`, with 76.8 µM.
As for `O=C(Nc1ccc2c(c1)CNC2)c1cc(Cl)cc2[nH]c(-c3nc4c(s3)CCC4)nc12`, the IC50 was found to be 40.3 µM.
Consider `O=C(Nc1ccc2c(c1)CN[C@H]2C[C@H](O)CO)c1cc(F)cc2[nH]ncc12`, for which the IC50 is 2.41 µM.
For `O=C(NCCCn1ccnc1)[C@H](Nc1ccc2c(c1)CNC2)c1cc(Cl)cc(C2CC2)c1` the value was 0.839 µM.
For `O=C(Nc1ccc2c(c1)CNC2)c1cc(Cl)ccc1-n1cncn1` the value was 42.7 µM.
Take `O=C(Nc1ccc2c(c1)CNC2)c1cc(Cl)cc2[nH]c(-c3ccc(F)cc3O)nc12`: the half-maximal inhibitory concentration (IC50) is over 99.5 µM.
The compound `O=C(Nc1ccc2c(c1)CNC2)c1cc(F)cc2[nH]cnc12` had an IC50 of 13.5 µM.
In turn, `O=C(Nc1ccc2c(c1)CNC2)c1cccc2ccncc12` showed an IC50 of 11.4 µM.
The compound `Cn1cc2c(C(=O)Nc3ccc4c(c3)CNC4)cc(F)cc2n1` returned an IC50 of 7.38 µM.
For `O=C(Nc1ccc2c(c1)CNC2)c1cc(Cl)cc2[nH]c(COc3ccccn3)nc12` the value was over 99.5 µM; for `O=C(Nc1ccc2c(c1)CNC2)c1cc(Br)cc2[nH]c([C@H]3CCCO3)nc12`, over 99.5 µM; for `C=CC[C@H]1NCc2cc(NC(=O)c3cc(Cl)cc4[nH]ncc34)ccc21`, 14.1 µM.
Then `CCc1ccc(-c2nc3c(C(=O)Nc4ccc5c(c4)CNC5)cc(Cl)cc3[nH]2)cc1`, with 32 µM; and `CC(C)(C)c1nc2c(C(=O)Nc3ccc4c(c3)CNC4)cc(Br)cc2[nH]1`, with over 99.5 µM; and `CCSc1ccc(Cl)cc1C(=O)Nc1ccc2c(c1)CNC2`, with 81.6 µM.
Then `CNC(=O)c1cccc(C(=O)Nc2ccc3c(c2)CNC3)c1`, with 36.8 µM; and `CCOCC1(c2nc3c(C(=O)Nc4ccc5c(c4)CNC5)cc(Cl)cc3[nH]2)CC1`, with over 99.5 µM; and `O=C(Nc1ccc2c(c1)CNC2)c1cc(Cl)cc2cc[nH]c12`, with 16.3 µM.
`O=C(Nc1ccc2c(c1)CNC2)c1cc(Cl)cc2[nH]c(-c3cnccc3O)nc12` showed an IC50 of over 99.5 µM.
For the compound `O=C(Nc1ccc2c(c1)CNC2)c1cccc2[nH]ccc12`, half-maximal inhibition (IC50) was put at 8.63 µM.
For `CC(C)NC(=O)[C@H](Nc1ccc2c(c1)CNC2)c1cccc2cn[nH]c12` the value was 14.1 µM; for `CCOC(=O)c1ncoc1CNC(=O)[C@H](Nc1ccc2c(c1)CNC2)c1cc(Cl)cc(C2CC2)c1`, 3.04 µM.
Turning to `CC1=C(c2cc(NC(=O)c3cc(Cl)cc4[nH]ncc34)cc3c2CNC3)CCC1=O`, the IC50 is 12.9 µM.
For the compound `O=C(Nc1ccc2c(c1)CNC2)c1cccc2sccc12`, the IC50 turned out to be 13.8 µM.
`O=C(Nc1ccc2c(c1)CNC2)c1cncc2[nH]ncc12` displayed a half-maximal inhibitory concentration (IC50) of 20.8 µM.
For `Cn1c(=O)[nH]c2c(C(=O)Nc3ccc4c(c3)CNC4)cc(Br)cc21` the value was 14.4 µM; for `O=C(NCC(F)F)[C@H](Nc1ccc2c(c1)CNC2)c1cc(Cl)cc2[nH]ncc12`, 2.64 µM.
On to `O=C(Nc1cc2c(c(C3=CC[C@H](O)CC3)c1)CNC2)c1cc(Cl)cc2[nH]ncc12`, for which the IC50 is 3.82 µM.
For `O=C(Nc1ccc2c(c1)CNC2)c1cc(Cl)cc2[nH]c(-c3cc(C4CC4)[nH]n3)nc12` the value was 10.1 µM; for `O=C(Nc1ccc2c(c1)CNC2)c1cc(Cl)cc2[nH]c(CCc3cccnc3)nc12`, 87.1 µM; for `CNC(=O)[C@H](Nc1ccc2c(c1)CNC2)c1cc(Cl)cc2c1OCC2`, 3.8 µM.
In turn, `O=C(Nc1ccc2c(c1)CNC2)c1cc(Cl)cc2[nH]c(-c3ncnn3C3CC3)nc12` yielded an IC50 of 87.2 µM.
`O=C(Nc1ccc2c(c1)CNC2)c1cc(Cl)cc(C(F)(F)F)n1` gave an IC50 of 40.1 µM.
`C=CC[C@H]1NCc2cc(NC(=O)c3cc(F)cc4c3CC(=O)N4)ccc21`: the IC50 amounted to 1.92 µM.
Take `O=C(Nc1ccc2c(c1)CNC2)c1cccc2nc(O)ccc12`: the IC50 is 6.71 µM.
For `CC(C)CNC(=O)[C@H](Nc1ccc2c(c1)CNC2)c1cc(Cl)cc2[nH]ncc12` the value was 0.643 µM.
For `O=C(Nc1ccc2c(c1)CNC2)c1cc(F)cc2c1CCNC2`, the IC50 is 1.36 µM.
In turn, `COCc1cc(Cl)cc(C(=O)Nc2ccc3c(c2)CNC3)c1` registered an IC50 of 73.2 µM.
Then `CCc1cnccc1-c1nc2c(C(=O)Nc3ccc4c(c3)CNC4)cc(Cl)cc2[nH]1`, with over 99.5 µM; and `O=C(Nc1ccc2c(c1)CNC2)c1cc(Br)cc2c1nc1n2CCCC1`, with 31.4 µM; and `CN(C)C(=O)CCCc1nc2c(C(=O)Nc3ccc4c(c3)CNC4)cc(Cl)cc2[nH]1`, with over 99.5 µM.
In the case of `CSCCNC(=O)[C@H](Nc1ccc2c(c1)CNC2)c1cc(Cl)cc(C2CC2)c1`, inhibition was half-maximal at 0.514 µM (IC50).
For `O=C(Nc1ccc2c(c1)CNC2)c1cc(Cl)cc(N2CCCC2=O)c1` the value was 24.8 µM; for `COc1cc(Cl)cc(C(=O)Nc2ccc3c(c2)CNC3)c1`, 40.7 µM; for `O=C(Nc1ccc2c(c1)CNC2)c1cc(F)cc2nn(-c3ccccn3)nc12`, 7.11 µM.
Then `CCCNC(=O)[C@H](Nc1ccc2c(c1)CNC2)c1cc(Cl)cc2[nH]ncc12`, with 0.356 µM; and `O=C(NCc1cccnc1)[C@H](Nc1ccc2c(c1)CNC2)c1cc(Cl)cc2[nH]ncc12`, with 1.37 µM.
Then `O=C1Cc2c(cccc2C(=O)Nc2ccc3c(c2)CNCCC3)N1`, with 2.15 µM.
For the compound `O=C(Nc1ccc2c(c1)CNC2)c1cc(Cl)cc2[nH]c(C3(n4ccnn4)CC3)nc12`, the IC50 is over 99.5 µM.
`N#Cc1cccc(-c2nc3c(C(=O)Nc4ccc5c(c4)CNC5)cc(Cl)cc3[nH]2)c1` yielded an IC50 of 7.57 µM.
In the case of `O=C(Nc1ccc2c(c1)CNC2)c1cccc2cn[nH]c12`, the half-maximal inhibitory concentration (IC50) was determined as 9.75 µM.
In turn, `C#Cc1cc(Cl)cc(C(=O)Nc2ccc3c(c2)CNC3)c1` came in with a half-maximal inhibitory concentration (IC50) of 58.6 µM.
Turning to `O=C(Nc1ccc2c(c1)CNC2)c1cc(F)cc(-c2cnc(C3CC3)s2)c1`, the IC50 worked out at 1.99 µM.
In turn, `O=C(Nc1ccc2c(c1)CNC2)c1cc(Cl)cc2ccccc12` registered a 50% inhibitory concentration (IC50) of 14.7 µM.
For the compound `O=C(Nc1ccc2c(c1)CNC2)c1cc(Cl)cc2c1NCCC2`, the IC50 was over 99.5 µM.
For `Nc1nc2c(Br)cc(C(=O)Nc3ccc4c(c3)CNC4)cc2s1` the value was over 99.5 µM; for `O=C(Nc1ccc2c(c1)CNC2)c1cc(Cl)cc2[nH]c(-c3cnc(C4CC4)o3)nc12`, 22.9 µM; for `O=C(Nc1ccc2c(c1)CNC2)c1cc(Cl)cc(N2CCCC2)c1`, 42.8 µM.
For `CC(=O)Nc1cccc(C(=O)Nc2ccc3c(c2)CNC3)c1`, 30.6 µM corresponded to half-maximal inhibition (IC50).
